{"source": "patent US20070059785A1", "about": "“Biomarkers in cancer” (SMITHKLINE BEECHAM CORPORATION, priority 2003, published 2007)", "key": {"[1]": {"tested_on": "cyclin D1", "assay": "Clinical tumor biopsies, cyclin D1 by quantitative IHC", "source_text": "(§3) All subjects provided written informed consent.\n“Cyclin D1” refers to total cyclin D1 present as measured by immunohistochemistry and reported by OD;"}, "[2]": {"tested_on": "TGFα", "assay": "Clinical tumor biopsies, TGFα by IHC", "conditions": "patient 425, inflammatory breast cancer, 1200 mg/d ditosylate salt, day 21 (day 0: 32)", "source_text": "(§4) Erk1/2 (1:1200), erbB3 (1:10), heregulin (1:25), and TGFα (1:20) were also immunostained using the BenchMark™ with I-VIEW detection chemistry.\nas §3\n“TGFα” refers to Transforming Growth Factor alpha as measured by immunohistochemistry and reported in OD;"}, "[3]": {"tested_on": "HN5 cells", "conditions": "Rusnak et al.; cited from earlier work"}, "[4]": {"tested_on": "Erk1/2", "assay": "Western blot of activated Erk1/2 (p-Erk1/2) in S1 cells", "assay_type": "cell-based, human", "conditions": "72 h", "from_the_text": "Proteins were transferred to Immobilon-P or nitrocellulose membranes.\nErbB2 overexpression is associated with the activation of downstream pathways involved in the propagation of proliferative signals such as Erk1/2 MAP kinases (Janes et al., Oncogene, 9:3601(1994)). […]."}, "[5]": {"tested_on": "Heregulin", "assay": "Clinical tumor biopsies, heregulin by IHC", "conditions": "patient 425, inflammatory breast cancer, 1200 mg/d ditosylate salt, day 21 (day 0: 5)", "quoted_text": "as §4\n“Heregulin”, a ligand that stimulates erbB3 (HER3) and HER4, was measured by immunohistochemistry and reported in OD."}, "[6]": {"biological_target": "T1, erbB2 (Homo sapiens, UniProt P04626)", "T1 sequence (P04626 23-1255)": "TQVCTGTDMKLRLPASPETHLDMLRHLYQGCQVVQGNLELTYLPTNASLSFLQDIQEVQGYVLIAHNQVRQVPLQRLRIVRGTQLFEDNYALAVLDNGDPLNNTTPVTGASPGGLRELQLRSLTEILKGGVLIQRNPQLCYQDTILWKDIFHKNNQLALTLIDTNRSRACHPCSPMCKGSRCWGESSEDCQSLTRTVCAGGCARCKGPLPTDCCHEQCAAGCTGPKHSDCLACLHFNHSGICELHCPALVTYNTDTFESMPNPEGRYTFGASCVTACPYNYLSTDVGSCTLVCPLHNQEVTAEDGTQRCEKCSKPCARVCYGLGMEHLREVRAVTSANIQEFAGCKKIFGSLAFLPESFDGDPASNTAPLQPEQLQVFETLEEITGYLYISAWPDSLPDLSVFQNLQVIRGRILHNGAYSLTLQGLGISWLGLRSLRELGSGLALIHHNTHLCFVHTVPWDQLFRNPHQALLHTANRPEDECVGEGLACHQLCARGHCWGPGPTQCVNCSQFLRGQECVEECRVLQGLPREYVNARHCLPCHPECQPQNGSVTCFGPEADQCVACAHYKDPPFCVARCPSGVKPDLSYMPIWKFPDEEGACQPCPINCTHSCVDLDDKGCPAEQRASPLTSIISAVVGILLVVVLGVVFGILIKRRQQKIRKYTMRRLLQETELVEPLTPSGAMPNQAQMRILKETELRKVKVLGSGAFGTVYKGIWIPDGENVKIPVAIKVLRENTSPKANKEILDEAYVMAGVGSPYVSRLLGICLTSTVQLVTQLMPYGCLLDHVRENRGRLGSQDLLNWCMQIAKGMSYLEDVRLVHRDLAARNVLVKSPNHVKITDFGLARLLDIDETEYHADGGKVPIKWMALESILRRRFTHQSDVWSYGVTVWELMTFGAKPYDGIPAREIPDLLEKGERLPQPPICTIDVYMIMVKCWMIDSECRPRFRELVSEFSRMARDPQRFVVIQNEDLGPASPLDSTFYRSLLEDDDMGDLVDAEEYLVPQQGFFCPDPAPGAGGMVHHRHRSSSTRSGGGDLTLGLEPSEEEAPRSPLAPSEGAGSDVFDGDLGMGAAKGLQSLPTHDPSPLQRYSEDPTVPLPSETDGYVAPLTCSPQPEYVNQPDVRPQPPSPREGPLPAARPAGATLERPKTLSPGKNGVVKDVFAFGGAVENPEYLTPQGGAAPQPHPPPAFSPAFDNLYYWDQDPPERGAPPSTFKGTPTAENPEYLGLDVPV", "assay": "Tumor xenografts, activated and total erbB2 by quantitative IHC", "assay_type": "in vivo, mice", "conditions": "HN5 and BT474 xenografts, 200 mg/kg oral once daily"}, "[7]": {"biological_target": "T1, erbB2", "assay": "IP Western blot of activated erbB2 (p-Tyr/erbB2) in S1 cells", "assay_type": "cell-based", "parameters": "endogenous in cells", "conditions": "72 h", "procedure": "FIG. 1. […] The erbB2 overexpressing human breast adenocarcinoma cell line, BT474, was obtained from the American Type Culture Collection (Rockville, M, USA). […] The EGFR overexpressing LICR-LON-HN5 head and neck carcinoma cell line, HN5, was kindly provided by Helmout Modjtahedi at the Institute of Cancer Research, Surrey, U.K.\nCell cultures were maintained in a humidified atmosphere of 5% CO2 at 37° C.\nProtein concentrations were determined using a modification of the Bradford method (Bio-Rad Laboratory).\nFor IP Western blots, equivalent amounts of protein were precleared with Protein G Plus/Protein A agarose overnight at 4° C. Precleared lysates were then incubated overnight at 4° C. with specific antibodies. Immune complexes were precipitated with Protein G Plus/Protein A agarose beads, washed in RIPA buffer and then boiled in sample loading buffer. Steady state levels of total Erk1/2 and activated Erk1/2 (p-Erk) as well as total AKT protein and activated AKT (p-AKT) protein were assessed by Western blot. […] Proteins were transferred to Immobilon-P or nitrocellulose membranes. Efficiency and equal loading of proteins was evaluated by Ponceau S staining. Membranes were blocked for 1 hr in TBS (25 mM Tris-HCl, pH 7.4, 150 mM NaCl, 2.7 mM KCl) containing 4% (w/v) lowfat milk or 3% BSA (w/v). Membranes were then probed with specific antibodies recognizing target proteins. […]"}, "[8]": {"tested_on": "Erk1/2", "assay": "Western blot of p-Erk1/2 in HN5 cells", "assay_type": "cell-based, human", "conditions": "for p-Erk1/2: HN5, exponentially growing, 72 h", "procedure": "(§1) The erbB2 overexpressing human breast adenocarcinoma cell line, BT474, was obtained from the American Type Culture Collection (Rockville, M, USA). […] The EGFR overexpressing LICR-LON-HN5 head and neck carcinoma cell line, HN5, was kindly provided by Helmout Modjtahedi at the Institute of Cancer Research, Surrey, U.K.\n(§2) For IP Western blots, equivalent amounts of protein were precleared with Protein G Plus/Protein A agarose overnight at 4° C. Precleared lysates were then incubated overnight at 4° C. with specific antibodies. Immune complexes were precipitated with Protein G Plus/Protein A agarose beads, washed in RIPA buffer and then boiled in sample loading buffer. Steady state levels of total Erk1/2 and activated Erk1/2 (p-Erk) as well as total AKT protein and activated AKT (p-AKT) protein were assessed by Western blot. […] Proteins were transferred to Immobilon-P or nitrocellulose membranes. Efficiency and equal loading of proteins was evaluated by Ponceau S staining. Membranes were blocked for 1 hr in TBS (25 mM Tris-HCl, pH 7.4, 150 mM NaCl, 2.7 mM KCl) containing 4% (w/v) lowfat milk or 3% BSA (w/v). Membranes were then probed with specific antibodies recognizing target proteins. Proteins were visualized with the SUPERSIGNAL® West Femto Maximum sensitivity substrate kit (Pierce).\nCell lysates were prepared and total Erk1/2 and activated Erk1/2 (p-Erk1/2) were assessed by Western blot."}, "[9]": {"assay": "Plasma concentration in patients", "assay_type": "in vivo, human", "conditions": "oral once a day"}, "[10]": {"tested_on": "p-Erk1/2", "assay": "Clinical tumor biopsies, p-ERK index by quantitative IHC", "conditions": "patient 364, head and neck cancer, 1600 mg/day, Day 21", "quoted_text": "To quantify changes in Erk1/2 activation state, a p-Erk index was established for each biopsy. The p-Erk index was the product of the percentage of cells staining positive for p-Erk1/2 in the tissue section and the OD value for p-Erk1/2 immunoreactivity. Investigators preparing and analyzing tissue sections were blinded to both patient tumor type and response to therapy.\n“pERK index” is calculated by multiplying the percentage of cells staining positive for p-Erk and the optical density (OD) score, ×100;"}, "[11]": {"tested_on": "Erk1/2", "assay": "Tumor xenografts, phospho-Erk1/2 and total Erk1/2 by quantitative IHC", "assay_type": "in vivo, mice", "conditions": "data not shown", "from_the_text": "DAB (Dako) was used as the chromogen.\nInhibition of erbB2/EGFR p-tyr in turn led to the inhibition of downstream activated, phospho-Erk1/2."}, "[12]": {"tested_on": "pAKT", "assay": "Clinical tumor biopsies, p-AKT by quantitative IHC", "source_text": "“pAKT” refers to phosphorylated AKT as measured by immunohistochemistry and reported in OD;"}, "[13]": {"tested_on": "Erk1/2", "assay": "Western blot of p-Erk1/2 in BT474 cells", "assay_type": "cell-based, human", "conditions": "for p-Erk1/2: BT474, exponentially growing, 72 h", "procedure": "as §1, §2\nBT474 is an erbB2 overexpressing breast carcinoma line that also expresses EGFR, albeit at lower levels. BT474 cells constitutively express activated erbB2 (p-Tyr/erbB2). […] Cell lysates were prepared and total Erk1/2 and activated Erk1/2 (p-Erk1/2) were assessed by Western blot."}, "[14]": {"tested_on": "Hb4a cells", "assay": "Hb4a cell growth, viable cell count by trypan blue exclusion", "assay_type": "cell-based", "conditions": "Homo sapiens, 72 h, serum-free, three independent experiments, read-out: inhibition of cell growth compared with vehicle treated controls", "procedure": "Exponentially growing Hb4a cells were cultured in 35 mm petri dishes with serum-free medium containing 1.5% BSA. […] Viable cells were counted after 72 h using trypan blue exclusion."}, "[15]": {"tested_on": "Erk1/2", "assay": "Clinical tumor biopsies, localization of total Erk1/2 by IHC", "assay_type": "in vivo, human", "conditions": "patient 361, Day 21; baseline exclusively intra-nuclear; data not shown", "from_the_text": "Upon activation, p-Erk1/2 relocates to the nucleus where it regulates transcription of a variety of genes involved in tumor growth, adhesion, and angiogenesis."}}, "data": [{"smiles": "CS(=O)(=O)CCNCc1ccc(-c2ccc3ncnc(Nc4ccc(OCc5cccc(F)c5)c(Cl)c4)c3c2)o1", "note": "[GW572016, N-{3-Chloro-4-[(3-fluorobenzyl)oxy]phenyl}-6-[5-({[2-(methylsulfonyl)ethyl]amino}methyl)-2-furyl]-4-quinazolinamine]", "values": [{"measurement": "reduction of cyclin D1 protein expression", "setting": "[1]; patient 361, 1200 mg/day, d 21", "result": 90, "unit": "%"}, {"measurement": "cyclin D1 OD", "setting": "[1]; patient 361, breast, 1200 mg/d, day 21 (day 0: 31)", "result": 3, "unit": "OD"}, {"measurement": "cyclin D1 OD", "setting": "[1]; patient 362, adenocarcinoma unknown primary, 900 mg/d, day 21 (day 0: 26)", "result": 37, "unit": "OD"}, {"measurement": "cyclin D1 OD", "setting": "[1]; patient 363, sarcoma, 500 mg/d, day 21 (day 0: 1)", "result": 12, "unit": "OD"}, {"measurement": "reduction of cyclin D1 expression", "setting": "[1]; patient 364, 1600 mg/day, 21 days of therapy", "result": 50, "unit": "%"}, {"measurement": "cyclin D1 OD", "setting": "[1]; patient 364, head & neck, 1600 mg/d, day 21 (day 0: 66)", "result": 33, "unit": "OD"}, {"measurement": "cyclin D1 OD", "setting": "[1]; patient 367, adenocarcinoma unknown primary, 650 mg/d, day 21 (day 0: 46)", "result": 39, "unit": "OD"}, {"measurement": "cyclin D1 OD", "setting": "[1]; patient 369, head & neck, 1200 mg/d, day 21 (day 0: 39)", "result": 22, "unit": "OD"}, {"measurement": "cyclin D1 OD", "setting": "[1]; patient 371, breast, 900 mg/d, day 21 (day 0: 42)", "result": 10, "unit": "OD"}, {"measurement": "cyclin D1 OD", "setting": "[1]; patient 372, breast, 1200 mg/d, day 21 (day 0: 20)", "result": 4, "unit": "OD"}, {"measurement": "Cyclin D1", "setting": "[1]; patient 425, inflammatory breast cancer, 1200 mg/d ditosylate salt, day 21 (day 0: 19)", "result": 12, "unit": "OD"}, {"measurement": "TGFa", "setting": "[2]", "result": 22, "unit": "OD"}, {"measurement": "apoptosis", "setting": "[3]", "result": "increased only slightly"}, {"measurement": "total steady state Erk protein", "setting": "[4]; 0.5-5 μM", "result": "remained unchanged"}, {"measurement": "inhibition at 0.5 µM", "setting": "[4]; Homo sapiens, 500 nM, vs vehicle, read-out: inhibition of activated, phosphorylated Erk1/2 (p-Erk)", "result": "> 50", "unit": "%"}, {"measurement": "inhibition at 2.5 µM", "setting": "[4]; Homo sapiens, 2.5 μM, vs vehicle, read-out: inhibition of activated, phosphorylated Erk1/2 (p-Erk)", "result": "> 50", "unit": "%"}, {"measurement": "inhibition at 5 µM", "setting": "[4]; Homo sapiens, 5 μM, vs vehicle, read-out: inhibition of activated, phosphorylated Erk1/2 (p-Erk)", "result": 100, "unit": "%"}, {"measurement": "Heregulin", "setting": "[5]", "result": 8, "unit": "OD"}, {"measurement": "erbB2 total protein", "setting": "[6]", "result": "neither EGFR nor erbB2 total protein was affected"}, {"measurement": "activated erbB2", "setting": "[6]; data not shown", "result": "inhibition"}, {"measurement": "inhibition of erbB2 tyrosine phosphorylation (p-Tyr/erbB2)", "setting": "[7]; 500 nM", "result": "Partial inhibition"}, {"measurement": "inhibition of erbB2 tyrosine phosphorylation (p-Tyr/erbB2)", "setting": "[7]; 2.5 μM", "result": "complete inhibition"}, {"measurement": "downstream p-Erk1/2", "setting": "[8]; HN5, 5 μM, 24 h serum-free, not reversed by EGF", "result": "inhibited"}, {"measurement": "total Erk1/2 steady state protein levels", "setting": "[8]; HN5, 72 h, GW572016 0.5 or 1 μM, Herceptin 10 μg/ml", "result": "Neither Herceptin™ nor GW572016 reduced"}, {"measurement": "p-Erk1/2", "setting": "[8]; 500 nM", "result": "inhibited"}, {"measurement": "p-Erk1/2", "setting": "[8]; 1 μM", "result": "inhibited"}, {"measurement": "time by which steady state plasma concentrations were achieved", "setting": "[9]", "result": "≤ 21", "unit": "days"}, {"measurement": "decrease in p-Erk1/2", "setting": "[10]", "result": "> 90", "unit": "%"}, {"measurement": "p-Erk1/2 levels", "setting": "[11]", "result": "reduced"}, {"measurement": "total Erk1/2 protein", "setting": "[11]", "result": "unaffected"}, {"measurement": "p-AKT OD", "setting": "[12]; patient 361, breast, 1200 mg/d, day 21 (day 0: 36)", "result": 24, "unit": "OD"}, {"measurement": "p-AKT OD", "setting": "[12]; patient 362, adenocarcinoma unknown primary, 900 mg/d, day 21 (day 0: 61)", "result": 81, "unit": "OD"}, {"measurement": "p-AKT OD", "setting": "[12]; patient 363, sarcoma, 500 mg/d, day 21 (day 0: 19)", "result": 32, "unit": "OD"}, {"measurement": "reduction of p-AKT", "setting": "[12]; patient 364, 1600 mg/day, Day 21", "result": 16, "unit": "%"}, {"measurement": "p-AKT OD", "setting": "[12]; patient 364, head & neck, 1600 mg/d, day 21 (day 0: 51)", "result": 43, "unit": "OD"}, {"measurement": "p-AKT OD", "setting": "[12]; patient 366, ovarian, 900 mg/d, day 21 (day 0: 22), aberrant staining, not considered valid", "result": 47, "unit": "OD"}, {"measurement": "p-AKT OD", "setting": "[12]; patient 367, adenocarcinoma unknown primary, 650 mg/d, day 21 (day 0: 35)", "result": 25, "unit": "OD"}, {"measurement": "p-AKT OD", "setting": "[12]; patient 369, head & neck, 1200 mg/d, day 21 (day 0: 24)", "result": 7, "unit": "OD"}, {"measurement": "p-AKT OD", "setting": "[12]; patient 371, breast, 900 mg/d, day 21 (day 0: 36)", "result": 33, "unit": "OD"}, {"measurement": "p-AKT OD", "setting": "[12]; patient 372, breast, 1200 mg/d, day 21 (day 0: 48)", "result": 30, "unit": "OD"}, {"measurement": "pAKT", "setting": "[12]; patient 425, inflammatory breast cancer, 1200 mg/d ditosylate salt, day 21 (day 0: 85)", "result": 26, "unit": "OD"}, {"measurement": "intensity of pAkt staining, particularly in the nuclei", "setting": "[12]; patient 425, post-treatment tumor sample, IHC, results not shown", "result": "greatly reduced"}, {"measurement": "EGF stimulation of p-Erk1/2", "setting": "[13]; BT474, 1 μM, 24 h serum-free, EGF 50 ng/ml", "result": "inhibited"}, {"measurement": "total Erk1/2 steady state protein levels", "setting": "[13]; BT474, 72 h, GW572016 0.5 or 1 μM, Herceptin 10 μg/ml", "result": "Neither Herceptin™ nor GW572016 reduced"}, {"measurement": "p-Erk1/2", "setting": "[13]; 500 nM", "result": "inhibited"}, {"measurement": "p-Erk1/2", "setting": "[13]; 1 μM", "result": "inhibited"}, {"measurement": "inhibition at 2.5 µM", "setting": "[14]", "result": 50, "unit": "%"}, {"measurement": "localization of total Erk1/2 staining", "setting": "[15]", "result": "almost entirely cytoplasmic"}]}]}
